Source: paper PMC10046377, “Inhibitors of the Oncogenic PA2G4-MYCN Protein-Protein Interface” (Cancers, 2023)

Key:
SK-N-BE(2)-C cells = experiment: Alamar Blue cell viability assay, SK-N-BE(2)-C; assay type: cell-based; conditions: Homo sapiens, MYCN amplified neuroblastoma cell line
From the text: (§1) The MYCN amplified neuroblastoma cell line SK-N-BE(2)-C was kindly provided by Professor June Biedler (Memorial Sloan Kettering Cancer Centre, New York, NY, USA), and Kelly was obtained from European Collection of Cell Cultures. The two normal lung fibroblast cell lines (MRC-5 and WI-38) were purchased from ATCC. SK-N-BE(2)-C shMYCN#2 doxycycline-inducible cell and Kelly shMYCN#2 doxycycline-inducible cell were custom-made by GenScript (Piscataway, NJ, USA). SK-N-BE(2)-C, SK-N-BE(2)-C shMYCN#2, and SHEP MYCN3 doxycycline-inducible cells were maintained in Dulbecco’s modified Eagle’s medium (DMEM) (Invitrogen, Life Technologies, Waltham, MA, USA) with 10% foetal calf serum (FCS). Kelly and Kelly shMYCN#2 doxycycline-inducible cell were cultured in Roswell Park Memorial Institute (RPMI) 1640 (Invitrogen, Life Technologies) with 10% FCS. MRC-5 and WI-38 were cultured in Alpha-MEM media (Invitrogen, Life Technologies) with 10% FCS. All cells were not cultured for more than 2 months. All used cell lines were authenticated by Cell Bank Australia (Westmead, NSW, Australia) as being free from mycoplasma, and cultured at 37 °C and 5% CO2 in a humidifier incubator.
(§2) Cell viability was determined by the Alamar Blue assay (75 mg resazurin, 12.5 mg methylene blue, 164.5 mg potassium hexacyanoferrate (III), 211 mg potassium hexacyanoferrate (II) trihydrate in 500 mL of phosphate buffered saline). After 6 h incubation with Alamar Blue, the change of fluorescence was measured by Victor 3 multilabel Plate Reader (Perkin Elmer Australia, Melburne, Australia) at an excitation wavelength of 560 nm and an emission wavelength of 590 nm.
(§3) We have shown that the PA2G4 protein increased the half-life of the oncoprotein MYCN through direct binding, and competitive chemical inhibition of this bond by WS6 reduced tumorigenicity both in vitro and in vivo [11]. […] Here, we explored the structure–activity relationship (SAR) of WS6 analogue compounds with the aim to increase efficacy and reduce toxicity. […] The in vitro cytotoxicity of these 14 compounds were measured by cell viability assays using Alamar Blue in MYCN amplified human neuroblastoma (SK-N-BE(2)-C and Kelly) cell lines compared to non-malignant (WI-38, MRC-5) myofibroblast cell lines (Figure 1B,C and Supplementary Figure S1A).

[1] = tested on: neuroblastoma cells (Kelly, SK-N-BE(2)-C) compared to non-malignant myofibroblasts (WI-38, MRC-5); experiment: Therapeutic window, neuroblastoma cells versus non-malignant myofibroblasts; assay type: cell-based, human; conditions: non-malignant myofibroblast IC50 versus neuroblastoma cell IC50
Experimental: as §2, §3

Kelly cells = experiment: Alamar Blue cell viability assay, Kelly; assay type: cell-based; conditions: Homo sapiens, MYCN amplified neuroblastoma cell line
From the text: as §1, §2, §3

WI-38 cells = experiment: Alamar Blue cell viability assay, WI-38 non-malignant myofibroblasts; assay type: cell-based; conditions: Homo sapiens, read-out: IC50 WI-36
From the text: as §1, §2, §3

PA2G4 = experiment: Western blot of PA2G4 protein level; assay type: cell-based, human; conditions: Kelly and SK-N-BE(2)-C cells; #5333/#5338: 48 h, seen more consistently at 30 μM, with the exception of #5333 in SK-N-BE(2)-C
Experimental: (§4) Protein was extracted from cell pellets using RIPA buffer (Sigma) with 10% protease inhibitor (Sigma, Sydney, Australia). Quantification of proteins was conducted using Pierce BCA protein assay kit (Thermo Scientific), according to manufacturer’s instructions. A total of 30–50 μg protein samples were loaded onto Criterion TGX 10% precast gel (Bio-Rad) or NuPAGE™ 4–12% Mini Protein Gel (Invitrogen, Life technologies) and transferred to a nitrocellulose membrane (Bio-Rad). The membrane was blocked in 5% skim milk in Tris-buffered saline with Tween-20 (20 mM Tris-HCl (pH 7.6), 137 mM NaCl, 0.1% Tween-20) for an hour before incubation at 4 °C overnight with the following primary antibodies: mouse anti-MYCN(1:2000, Santa-Cruz, Cat# sc-53993), rabbit anti-PA2G4 (1:2000, Atlas Antibodies, Cat# HPA016484), rabbit anti-PARP (1:1000, Cell Signalling Technologies, Danvers, MA, USA, Cat# 9542), rabbit anti-Caspase-3 (1:500, Cell Signalling Technologies, Cat# 9662), mouse anti-Bcl-2 (1:1000, Cell Signalling Technologies, Cat# 15071), rabbit anti-Bax (1:1000, Cell Signalling Technologies, Cat# 2772), mouse anti-Vinculin (1:2000, Sigma, Cat# V9131), mouse anti-GAPDH (1:2000, Santa-cruz, Cat# sc-365062), rabbit anti-β-actin (1:5000, Sigma, Cat# SAB2100037), rabbit anti-GATA2 (1:1000, Cell Signalling Technologies, Cat# 4595), mouse anti-Flag/DYKDDDDK tag (1:1000, Cell Signalling Technologies, Cat# 8146). Anti-mouse or anti-rabbit horseradish peroxidase secondary antibodies (1:5000, Life technologies, Cat# 31430, 31460) were added and incubated for 2 h at room temperature. Immunoblots were visualised by Clarity ECL reagent (Bio-Rad) and ChemiDoc MP Imaging System (Bio-Rad). Quantification of protein expression was measured by Image Lab software (Bio-Rad) and normalised to loading control.
(§5) Next, we examined whether #5333 and #5338 treatment for 48 h affected the levels of WS6 target proteins, PA2G4, and MYCN in neuroblastoma cells. […] Cell viability was measured following #5333 and #5338 treatments for 48–72 h. […] Cell viability was measured following #5333, #5338, or WS6 treatments for 72 h.

MYCN = experiment: Western blot of MYCN protein level; assay type: cell-based, human; conditions: Kelly and SK-N-BE(2)-C cells; #5333/#5338: 48 h, 10–30 μM
Experimental: as §4, §5

MRC-5 cells = experiment: Alamar Blue cell viability assay, MRC-5 non-malignant myofibroblasts; assay type: cell-based; conditions: Homo sapiens, MRC5
From the text: as §1, §2, §3

Cc1cccc(Oc2cc(N3CCC(C(=O)N[C@@H](C)CCc4ccccc4)CC3)ncn2)c1C [#5338]
IC50 (SK-N-BE(2)-C cells): 23.3 µM
Therapeutic window (fold difference) [1]: 3.8 fold
IC50 (Kelly cells): 30 µM
IC50 (WI-38 cells): 100 µM
PA2G4 protein levels (Western blot) (PA2G4): Reductions in PA2G4 levels
MYCN protein levels (Western blot) (MYCN): significantly reduced MYCN levels
IC50 (MRC-5 cells): 100 µM

Cc1cccc(Oc2cc(N3CCC(C(=O)NCc4cccc(C(F)(F)F)c4)CC3)ncn2)c1C [#3567]
IC50 (SK-N-BE(2)-C cells): 30 µM
Therapeutic window (fold difference) [1]: 2.7 fold
IC50 (Kelly cells): 29 µM
IC50 (WI-38 cells): 80 µM
PA2G4 protein levels (Western blot) (PA2G4): significantly reduced
MYCN protein levels (Western blot) (MYCN): significantly reduced
IC50 (MRC-5 cells): 80 µM

Cc1cccc(Oc2cc(N3CCC(C(=O)NCc4cccc(Br)c4)CC3)ncn2)c1C [#5333]
IC50 (SK-N-BE(2)-C cells): 26.5 µM
Therapeutic window (fold difference) [1]: 3.6 fold
IC50 (Kelly cells): 28.6 µM
IC50 (WI-38 cells): 100 µM
PA2G4 protein levels (Western blot) (PA2G4): Reductions in PA2G4 levels
MYCN protein levels (Western blot) (MYCN): significantly reduced MYCN levels
IC50 (MRC-5 cells): 100 µM
